Measurements: ChEMBL document CHEMBL4814024, “Microwave assisted regioselective synthesis of quinoline appended triazoles as potent anti-tubercular and antifungal agents via copper (I) catalyzed cycloaddition” (Bioorg Med Chem Lett, 2021)
Converted amounts (≈) assume the structure as drawn.

Columns and labels:
[1] = system: Mycobacterium tuberculosis; experiment: Antimycobacterial activity against Mycobacterium tuberculosis; format: functional
[2] = system: Mycobacterium tuberculosis; experiment: Antimycobacterial activity against Mycobacterium tuberculosis H37Rv assessed as reduction in bacterial growth incubated for 5 days by MTT assay; format: functional; details: 120 h, time 5 day
[3] = Selectivity index, ratio of IC50 for cytotoxicity against human HEK293 cells to MIC for antimycobacterial activity against Mycobacterium tuberculosis H37Rv ATCC 27294; format: toxicity, cell-based; details: read-out: Selectivity Index
Aspergillus fumigatus = experiment: Antifungal activity against Aspergillus fumigatus; format: functional
Candida albicans = experiment: Antifungal activity against Candida albicans; format: functional
[4] = system: Mycobacterium tuberculosis; experiment: Antimycobacterial activity against Mycobacterium tuberculosis H37Rv ATCC 27294 assessed as reduction in bacterial growth by microplate alamar blue assay; format: functional
HEK293 = experiment: Cytotoxicity against HEK293 cells by MTT assay; format: cell-based; details: Homo sapiens
Aspergillus niger = experiment: Antifungal activity against Aspergillus niger; format: functional
Aspergillus flavus = experiment: Antifungal activity against Aspergillus flavus; format: functional

Compound	MIC [1]	MIC [2]	selectivity ratio [3]	MIC (Aspergillus fumigatus)	MIC (Candida albicans)	MIC [4]	IC50 (HEK293)	MIC (Aspergillus niger)	MIC (Aspergillus flavus)
O=C(N/N=C/c1cn(-c2ccc(Cl)cc2)nn1)c1ccncc1	0.62 mg/L (≈ 1.9 µM)	–	–	–	–	–	–	–	–
CCCCCCCCc1cn(CC(=O)OCC)nn1	–	0.5 mg/L (≈ 1.87 µM)	–	–	–	–	–	–	–
O=c1n(Cc2cn(Cc3cc4cc(Cl)ccc4nc3Cl)nn2)cnn1-c1ccccc1	–	–	36.7	3.12 mg/L (≈ 6.9 µM)	0.2 mg/L (≈ 0.442 µM)	12.5 mg/L (≈ 27.6 µM)	459 mg/L (≈ 1010 µM)	0.2 mg/L (≈ 0.442 µM)	0.2 mg/L (≈ 0.442 µM)
O=c1n(Cc2cn(Cc3cc4ccc(Cl)cc4nc3Cl)nn2)cnn1-c1ccccc1	–	–	34.8	3.12 mg/L (≈ 6.9 µM)	0.2 mg/L (≈ 0.442 µM)	25 mg/L (≈ 55.3 µM)	869 mg/L (≈ 1920 µM)	0.2 mg/L (≈ 0.442 µM)	0.2 mg/L (≈ 0.442 µM)
COc1ccc2cc(Cn3cc(Cn4cnn(-c5ccccc5)c4=O)nn3)c(Cl)nc2c1	–	–	630	3.12 mg/L (≈ 6.97 µM)	0.2 mg/L (≈ 0.447 µM)	1.6 mg/L (≈ 3.57 µM)	1010 mg/L (≈ 2250 µM)	0.2 mg/L (≈ 0.447 µM)	0.2 mg/L (≈ 0.447 µM)
C[C@@H](N1CCN(c2ccc(-n3cnnn3)cc2)C1=O)[C@](O)(Cn1cncn1)c1ccc(F)cc1F	–	–	–	1 mg/L (≈ 2.08 µM)	–	–	–	–	–
COc1ccc(-n2ncn(Cc3cn(Cc4cc5cccc(C)c5nc4Cl)nn3)c2=O)cc1	–	–	366	3.12 mg/L (≈ 6.75 µM)	0.2 mg/L (≈ 0.433 µM)	1.6 mg/L (≈ 3.46 µM)	586 mg/L (≈ 1270 µM)	0.2 mg/L (≈ 0.433 µM)	0.2 mg/L (≈ 0.433 µM)
COc1ccc(-n2ncn(Cc3cn(Cc4cc5cc(Cl)ccc5nc4Cl)nn3)c2=O)cc1	–	–	340	3.12 mg/L (≈ 6.47 µM)	0.2 mg/L (≈ 0.415 µM)	3.12 mg/L (≈ 6.47 µM)	1060 mg/L (≈ 2200 µM)	0.2 mg/L (≈ 0.415 µM)	0.2 mg/L (≈ 0.415 µM)
Cc1cccc2cc(Cn3cc(Cn4cnn(-c5ccccc5)c4=O)nn3)c(Cl)nc12	–	–	234	3.12 mg/L (≈ 7.22 µM)	0.2 mg/L (≈ 0.463 µM)	1.6 mg/L (≈ 3.7 µM)	729 mg/L (≈ 1690 µM)	0.2 mg/L (≈ 0.463 µM)	0.2 mg/L (≈ 0.463 µM)
O=c1n(Cc2cn(Cc3cc4ccccc4nc3Cl)nn2)cnn1-c1ccccc1	–	–	26.2	3.12 mg/L (≈ 7.47 µM)	0.2 mg/L (≈ 0.479 µM)	25 mg/L (≈ 59.8 µM)	655 mg/L (≈ 1570 µM)	0.2 mg/L (≈ 0.479 µM)	0.2 mg/L (≈ 0.479 µM)
COc1ccc(-n2ncn(Cc3cn(Cc4cc5ccc(Cl)cc5nc4Cl)nn3)c2=O)cc1	–	–	470	3.12 mg/L (≈ 6.47 µM)	0.2 mg/L (≈ 0.415 µM)	3.12 mg/L (≈ 6.47 µM)	1460 mg/L (≈ 3040 µM)	0.2 mg/L (≈ 0.415 µM)	0.2 mg/L (≈ 0.415 µM)
COc1ccc(-n2ncn(Cc3cn(Cc4cc5cc(C)ccc5nc4Cl)nn3)c2=O)cc1	–	–	384	3.12 mg/L (≈ 6.75 µM)	0.2 mg/L (≈ 0.433 µM)	1.6 mg/L (≈ 3.46 µM)	615 mg/L (≈ 1330 µM)	0.2 mg/L (≈ 0.433 µM)	0.2 mg/L (≈ 0.433 µM)
COc1ccc(-n2ncn(Cc3cn(Cc4cc5ccccc5nc4Cl)nn3)c2=O)cc1	–	–	76.7	3.12 mg/L (≈ 6.97 µM)	0.2 mg/L (≈ 0.447 µM)	12.5 mg/L (≈ 27.9 µM)	958 mg/L (≈ 2140 µM)	0.2 mg/L (≈ 0.447 µM)	0.2 mg/L (≈ 0.447 µM)
Cc1ccc2nc(Cl)c(Cn3cc(Cn4cnn(-c5ccccc5)c4=O)nn3)cc2c1	–	–	153	3.12 mg/L (≈ 7.22 µM)	0.2 mg/L (≈ 0.463 µM)	3.12 mg/L (≈ 7.22 µM)	478 mg/L (≈ 1110 µM)	0.2 mg/L (≈ 0.463 µM)	0.2 mg/L (≈ 0.463 µM)
COc1ccc(-n2ncn(Cc3cn(Cc4cc5cc(Br)ccc5nc4Cl)nn3)c2=O)cc1	–	–	53.2	3.12 mg/L (≈ 5.92 µM)	0.2 mg/L (≈ 0.38 µM)	6.25 mg/L (≈ 11.9 µM)	333 mg/L (≈ 632 µM)	0.2 mg/L (≈ 0.38 µM)	0.2 mg/L (≈ 0.38 µM)
O=c1n(Cc2cn(Cc3cc4cc(Br)ccc4nc3Cl)nn2)cnn1-c1ccccc1	–	–	66.1	3.12 mg/L (≈ 6.28 µM)	0.2 mg/L (≈ 0.403 µM)	25 mg/L (≈ 50.3 µM)	1650 mg/L (≈ 3330 µM)	0.2 mg/L (≈ 0.403 µM)	0.2 mg/L (≈ 0.403 µM)
O=C(O)c1cn(C2CC2)c2cc(N3CCNCC3)c(F)cc2c1=O [CIPROFLOXACIN]	–	–	–	–	–	3.12 mg/L (≈ 9.42 µM)	–	–	–
OC(Cn1cncn1)(Cn1cncn1)c1ccc(F)cc1F [FLUCONAZOLE]	–	–	–	–	25 mg/L (≈ 81.6 µM)	–	–	25 mg/L (≈ 81.6 µM)	25 mg/L (≈ 81.6 µM)
NNC(=O)c1ccncc1 [ISONIAZID]	–	–	–	–	–	1.6 mg/L (≈ 11.7 µM)	–	–	–
NC(=O)c1cnccn1 [PYRAZINAMIDE]	–	–	–	–	–	6.25 mg/L (≈ 50.8 µM)	–	–	–
